Laboratory results published in patent US8735406B2, “8-oxodihydropurine derivative” (Dainippon Sumitomo Pharma Co., Ltd., priority 2009, dated 2014).
Where two headings read alike, the source gives them in different places.

Biological target: T1, FAAH (Rattus norvegicus, UniProt P97612)
T1 construct: Preparation of Rat Brain Membranes Preparations (FAAH Enzyme Solution); from tissue; host or cells: rat cerebrum (brain membrane preparation)
T1 sequence (P97612 1-579): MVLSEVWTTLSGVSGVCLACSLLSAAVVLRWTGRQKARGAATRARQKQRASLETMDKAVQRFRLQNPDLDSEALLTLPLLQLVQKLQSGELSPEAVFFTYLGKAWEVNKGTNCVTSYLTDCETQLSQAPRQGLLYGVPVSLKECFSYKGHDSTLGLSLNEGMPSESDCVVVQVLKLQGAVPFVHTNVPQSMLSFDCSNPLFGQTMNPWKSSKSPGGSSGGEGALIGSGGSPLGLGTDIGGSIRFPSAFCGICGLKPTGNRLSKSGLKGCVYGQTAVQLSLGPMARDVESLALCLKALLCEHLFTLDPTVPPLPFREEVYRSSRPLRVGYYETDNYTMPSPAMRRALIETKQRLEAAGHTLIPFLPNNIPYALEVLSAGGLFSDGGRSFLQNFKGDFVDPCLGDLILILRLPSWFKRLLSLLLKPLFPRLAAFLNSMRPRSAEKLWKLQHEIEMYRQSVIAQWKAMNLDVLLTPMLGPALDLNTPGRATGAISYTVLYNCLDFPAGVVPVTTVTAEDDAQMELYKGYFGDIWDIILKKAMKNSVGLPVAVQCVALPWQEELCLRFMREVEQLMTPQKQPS
Assay: Determination of FAAH inhibitory activity in rat (rat brain membrane preparations, [3H]-anandamide hydrolysis)
Type: biochemical
Settings: for inhibition at 0.1 µM: read-out: FAAH Inhibition, Inhibition Rate at 100 nM; for IC50: test substance 0.1 nM to 1 μM
How it was run: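 Compounds tested from 0.1 nM to 1 μM to derive IC50 against FAAH hydrolysis in rat brain membrane preparations (100 μg/mL). A 10-min 37 °C preincubation was followed by 10 min with [3H]-anandamide (2 nM) mixed with 2 μM unlabelled anandamide. Radioactive ethanolamine was extracted into the water/methanol layer and counted.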

[1] = rat brain membrane preparations, 100 nM test substance
[2] = rat brain membrane preparations, read-out: FAAH Inhibition IC50

| inhibition at 0.1 µM [1] [%] | IC50 [2] [nM] | SMILES | IC50 (FAAH Inhibition IC50, rat brain membrane preparations) [nM] | inhibition at 0.1 µM [%] |
| --- | --- | --- | --- | --- |
| 100 | 6 | COc1cccc(-c2ncc3c(n2)n(C)c(=O)n3C(=O)N2CCC(CCc3ccc(F)cc3)CC2)c1 [Example 96, 7-({4-[2-(4-Fluorophenyl)ethyl]piperidin-1-yl}carbonyl)-2-(3-methoxyphenyl)-9-methyl-7,9-dihydro-8H-purine 8-one] |  |  |
| 99 | 37 | COc1cccc(-c2ncc3c(n2)n(C)c(=O)n3C(=O)N2CCN(C3CCCCC3)CC2)c1 [Example 97, 7-[(4-Cyclohexylpiperazin-1-yl)carbonyl]-2-(3-methoxyphenyl)-9-methyl-7,9-dihydro-8H-purine-8-one] |  |  |
| 93 | 40 | COc1cccc(-c2ncc3c(n2)n(C)c(=O)n3C(=O)N2CCN(C3CCCC3)CC2)c1 [Example 98, 7-[(4-Cyclopentylpiperazin-1-yl)carbonyl]-2-(3-methoxyphenyl)-9-methyl-7,9-dihydro-8H-purine-8-one] |  |  |
| 100 | 7 | COc1cccc(-c2ncc3c(n2)n(C)c(=O)n3C(=O)N2CCN(CC(F)(F)F)CC2)c1 [Example 99, 2-(3-Methoxyphenyl)-9-methyl-7-{[4-(2,2,2-trifluoroethyl)piperazin-1-yl]carbonyl}-7,9-dihydro-8H-purine-8-one] |  |  |
| 100 | 9 | COc1cccc(-c2ncc3c(n2)n(C)c(=O)n3C(=O)N2CCN(CCC3CCCCC3)CC2)c1 [Example 100, 7-{[4-(2-Cyclohexylethyl)piperazin-1-yl]carbonyl}-2-(3-methoxyphenyl)-9-methyl-7,9-dihydro-8H-purine-8-one] |  |  |
| 102 | 7 | COc1cccc(-c2ncc3c(n2)n(C)c(=O)n3C(=O)N2CCC(COc3ccccc3)CC2)c1 [Example 101, 2-(3-Methoxyphenyl)-9-methyl-7-{[4-(phenoxymethyl)piperidin-1-yl]carbonyl}-7,9-dihydro-8H-purine-8-one] |  |  |
| 101 | 5 | COc1cccc(-c2ncc3c(n2)n(C)c(=O)n3C(=O)N2CCC(=Cc3ccc(Cl)cc3)CC2)c1 [Example 102, 7-{[4-(4-Chlorobenzylidene)piperidin-1-yl]carbonyl}-2-(3-methoxyphenyl)-9-methyl-7,9-dihydro-8H-purine-8-one] |  |  |
|  |  | COc1cccc(-c2ncc3c(n2)n(C)c(=O)n3C(=O)N(C)CCCl)c1 [Example 103, N-(2-Chloroethyl)-2-(3-methoxyphenyl)-N,9-dimethyl-8-oxo-8,9-dihydro-7H-purine-7-carboxamide] | 7 | 100 |
| 101 | 3 | COc1cccc(-c2ncc3c(n2)n(C)c(=O)n3C(=O)N(C)CCc2nc(-c3ccccc3)no2)c1 [Example 104, 2-(3-Methoxyphenyl)-N,9-dimethyl-8-oxo-N-[2-(3-phenyl-1,2,4-oxadiazol-5-yl)ethyl]-8,9-dihydro-7H-purine-7-carboxamide] |  |  |
| 108 | 1 | COc1cccc(-c2ncc3c(n2)n(C)c(=O)n3C(=O)N(C)CCc2ccc(Cl)c(Cl)c2)c1 [Example 105, N-[2-(3,4-Dichlorophenyl)ethyl]-2-(3-methoxyphenyl)-N,9-dimethyl-8-oxo-8,9-dihydro-7H-purine-7-carboxamide] |  |  |
| 110 | 1 | COc1cccc(-c2ncc3c(n2)n(C)c(=O)n3C(=O)N(C)CCC2=CCCCC2)c1 [Example 106, N-[2-(Cyclohex-1-en-1-yl)ethyl]-2-(3-methoxyphenyl)-N,9-dimethyl-8-oxo-8,9-dihydro-7H-purine-7-carboxamide] |  |  |
| 101 | 7 | CCCN(C)C(=O)n1c(=O)n(C)c2nc(-c3cccc(OC)c3)ncc21 [Example 107, 2-(3-Methoxyphenyl)-N,9-dimethyl-8-oxo-N-propyl-8,9-dihydro-7H-purine-7-carboxamide] |  |  |
| 94 | 22 | COc1cccc(-c2ncc3c(n2)n(C)c(=O)n3C(=O)N(C)CC(C)C)c1 [Example 108, 2-(3-Methoxyphenyl)-N,9-dimethyl-N-(2-methylpropyl)-8-oxo-8,9-dihydro-7H-purine-7-carboxamide] |  |  |
| 103 | 2 | COc1cccc(-c2ncc3c(n2)n(C)c(=O)n3C(=O)N(C)CCC2CCCCC2)c1 [Example 109, N-(2-Cyclohexylethyl)-2-(3-methoxyphenyl)-N,9-dimethyl-8-oxo-8,9-dihydro-7H-purine-7-carboxamide] |  |  |
| 103 | 3 | COc1cccc(-c2ncc3c(n2)n(C)c(=O)n3C(=O)N(C)CCc2ccc(Cl)cc2Cl)c1 [Example 110, N-[2-(2,4-Dichlorophenyl)ethyl]-2-(3-methoxyphenyl)-N,9-dimethyl-8-oxo-8,9-dihydro-7H-purine-7-carboxamide] |  |  |
| 46 | 60 | COc1cccc(-c2ncc3c(n2)n(C)c(=O)n3C(=O)N(C)CCN2CCOCC2)c1 [Example 111] |  |  |
| 103 | 4 | COc1cccc(-c2ncc3c(n2)n(C)c(=O)n3C(=O)N2CCC(/C=C/c3ccc(Cl)cc3)CC2)c1 [Example 112, 7-({4-[(E)-2-(4-Chlorophenyl)ethenyl]piperidin-1-yl}carbonyl)-2-(3-methoxyphenyl)-9-methyl-7,9-dihydro-8H-purine-8-one] |  |  |
| 103 | 3 | COc1cccc(-c2ncc3c(n2)n(C)c(=O)n3C(=O)N(C)CCc2ccc(N(C)C)cc2)c1 [Example 113, N-{2-[4-(Dimethylamino)phenyl]ethyl}-2-(3-methoxyphenyl)-N,9-dimethyl-8-oxo-8,9-dihydro-7H-purine-7-carboxamide] |  |  |
| 103 | 2 | COc1cccc(-c2ncc3c(n2)n(C)c(=O)n3C(=O)N(C)CCc2ccccn2)c1 [Example 114, 2-(3-Methoxyphenyl)-N,9-dimethyl-8-oxo-N-[2-(pyridin-2-yl)ethyl]-8,9-dihydro-7H-purine-7-carboxamide] |  |  |
| 103 | 5 | COc1cccc(-c2ncc3c(n2)n(C)c(=O)n3C(=O)N(C)CCc2ccncc2)c1 [Example 115, 2-(3-Methoxyphenyl)-N,9-dimethyl-8-oxo-N-[2-(pyridin-4-yl)ethyl]-8,9-dihydro-7H-purine-7-carboxamide] |  |  |
| 110 | 2 | COc1cccc(-c2ncc3c(n2)n(C)c(=O)n3C(=O)N(C)CCOCC2CC2)c1 [Example 116, N-[2-(Cyclopropylmethoxy)ethyl]-2-(3-methoxyphenyl)-N,9-dimethyl-8-oxo-8,9-dihydro-7H-purine-7-carboxamide] |  |  |
| 107 | 4 | COc1cccc(-c2ncc3c(n2)n(C)c(=O)n3C(=O)N(C)CCC2CCOCC2)c1 [Example 117, 2-(3-Methoxyphenyl)-N,9-dimethyl-8-oxo-N-[2-(tetrahydro-2H-pyran-4-yl)ethyl]-8,9-dihydro-7H-purine-7-carboxamide] |  |  |
| 103 | 5 | COc1ccc(CCC2CCN(C(=O)n3c(=O)n(C)c4nc(-c5cccc(OC)c5)ncc43)CC2)cc1 [Example 118, 2-(3-Methoxyphenyl)-7-({4-[2-(4-methoxyphenyl)ethyl]piperidin-1-yl}carbonyl)-9-methyl-7,9-dihydro-8H-purine-8-one] |  |  |
| 100 | 7 | COCCC1CCN(C(=O)n2c(=O)n(C)c3nc(-c4cccc(OC)c4)ncc32)CC1 [Example 119, 7-{[4-(2-Methoxyethyl)piperidin-1-yl]carbonyl}-2-(3-methoxyphenyl)-9-methyl-7,9-dihydro-8H-purine-8-one] |  |  |
| 101 | 11 | Cn1c(=O)n(C(=O)N2CCN(c3ccccc3)CC2)c2cnc(-c3ccccc3)nc21 [Example 120, 9-Methyl-2-phenyl-7-[(4-phenylpiperazin-1-yl)carbonyl]-7,9-dihydro-8H-purine-8-one] |  |  |
| 98 | 42 | COc1cccc(N2CCN(C(=O)n3c(=O)n(C)c4nc(-c5ccccc5)ncc43)CC2)c1 [Example 121, 7-{[4-(3-Methoxyphenyl)piperazin-1-yl]carbonyl}-9-methyl-2-phenyl-7,9-dihydro-8H-purine-8-one] |  |  |
| 97 | 35 | COc1ccccc1N1CCN(C(=O)n2c(=O)n(C)c3nc(-c4ccccc4)ncc32)CC1 [Example 122, 7-{[4-(2-Methoxyphenyl)piperazin-1-yl]carbonyl}-9-methyl-2-phenyl-7,9-dihydro-8H-purine-8-one] |  |  |
| 101 | 4 | Cn1c(=O)n(C(=O)N2CCN(c3ccc(F)cc3)CC2)c2cnc(-c3ccccc3)nc21 [Example 123, 7-{[4-(4-Fluorophenyl)piperazin-1-yl]carbonyl}-9-methyl-2-phenyl-7,9-dihydro-8H-purine-8-one] |  |  |
